# Measurements taken from patent US11453668B2, “JAK inhibitors containing a 4-membered heterocyclic amide” (THERAVANCE BIOPHARMA R&D IP, LLC, priority 2017, dated 2022).
# Legend:
# [1] = test system: IL-2/anti-CD3 stimulated IFNγ in human PBMCs; experiment: Inhibition of IL-2/anti-CD3 stimulated IFNγ in human PBMCs; type: cell-based
# Method: The potency of the test compound for inhibition of interleukin-2 (IL-2)/anti-CD3 stimulated interferon gamma (IFNγ) was measured in human peripheral blood mononuclear cells (PBMCs) isolated from human whole blood (Stanford Blood Center). Because IL-2 signals through JAK, this assay provides a measure of JAK cellular potency.
# (1) Human peripheral blood mononuclear cells (PBMC) were isolated from human whole blood of healthy donors using a ficoll gradient. Cells were cultured in a 37° C., 5% CO2 humidified incubator in RPMI (Life Technologies) supplemented with 10% Heat Inactivated Fetal Bovine Serum (FBS, Life Technologies), 2 mM Glutamax (Life Technologies), 25 mM HEPES (Life Technologies) and 1X Pen/Strep (Life
# Technologies). Cells were seeded at 200,000 cells/well in media (50 μL) and cultured for 1 h. Compounds were serially diluted in DMSO and then diluted another 500-fold (to a 2× final assay concentration) in media. […]
# (2) After cytokine stimulation, cells were centrifuged at 500 g for 5 min and supernatants removed and frozen at −80° C. To determine the inhibitory potency of the test compound in response to IL-^2/anti-CD3, supernatant IFNγ concentrations were measured via ELISA (R&D Systems). IC50 values were determined from analysis of the inhibition curves of concentration of IFNγ vs compound concentration. Data are expressed as pIC50 (negative decadic logarithm IC50) values.
# [2] = test system: IL-5 mediated survival of human eosinophils; experiment: IL-5 mediated eosinophil survival assay; type: cell-based
# Method: The potency of the test compound for IL-5 mediated eosinophil survival was measured in human eosinophils isolated from human whole blood (AllCells). Because IL-5 signals through JAK, this assay provides a measure of JAK cellular potency.
# Human eosinophils were isolated from fresh human whole blood (AllCells) of healthy donors. Blood was mixed with 4.5% Dextran (Sigma-Aldrich) in a 0.9% sodium chloride solution (Sigma-Aldrich). Red blood cells were left to sediment for 35 minutes. The leukocyte rich upper layer was removed and layered over Ficoll-Paque (GE Healthcare) and centrifuged at 600 g for 30 minutes. The plasma and mononuclear cell layers were removed before the granulocyte layer was lysed with water to remove any contaminating red blood cells. […] Purity was analyzed using a LSRII flow cytometer (BD Biosciences). […]
# After cytokine stimulation, cells were centrifuged at 300 g for 5 min and washed twice with cold DPBS (Life Technologies). To access viability and apoptosis, cells were incubated with Propidium Iodide (Thermo Fisher Scientific) and APC Annexin V (BD Biosciences) and analyzed using a LSRII flow cytometer (BD Biosciences). IC50 values were determined from analysis of the viability curves of percent cell viability vs compound concentration. Data are expressed as pIC50 (negative decadic logarithm IC50 ) values.
# [3] = test system: IL-6 stimulated STAT3 phosphorylation in CD3+ T cells; experiment: Inhibition of IL-6 stimulated pSTAT3 in CD3+ T cells; type: cell-based, human
# Excerpt: A protocol analogous to that of Assay 10 was used to determine the potency of the test compound for inhibition of interleuken-6 (IL-6) stimulated STAT3 phosphorylation. An Alexa Fluor 647 conjugated anti-pSTAT3 antibody (pY705, Clone 4/P, BD Biosciences) was used to detect STAT3 phosphorylation.
structure (smiles),measurement,setting,value
"CCc1cc(O)c(F)cc1-c1ccc2c(-c3nc4c([nH]3)CN(C(C)C)[C@H](C(=O)N3CC(N(C)C)C3)C4)n[nH]c2c1 [Example 2, (S)-(3-(dimethylamino)azetidin-1-yl)(2-(6-(2-ethyl-5-fluoro-4-hydroxyphenyl)-1H-indazol-3-yl)-5-isopropyl-4,5,6,7-tetrahydro-3H-imidazo [4,5-c]pyridin-6-yl)methanone]",inhibition of anti-CD3 and IL-2 induced release of IFNγ from activated human peripheral blood-isolated T cells,[1],inhibit
same,inhibition of IL-5 mediated human eosinophil survival,[2],potently inhibit
same,inhibition of IL-6 signaling,[3],inhibit IL-6 signaling
